Data set [1] concerns Vero E6 cells (ATCC CRL1586). Kind of data set: Cytotoxicity to mammalian cells in culture (CellTiter96 assay). The class given is cell-based. As to conditions: for MIC50 Vero E6 ATCC CRL1586: Table 3. From the text:
MICs for mammalian cells (Vero E6) in culture were quantified using CellTiter96 assay (Promega. Inc.; procedures as specified by the manufacturer).

Data set [2] has as its system human RNAP I, II, and III. The data set can be described thus: Radiochemical assay with human RNAP I, II, and III (HeLaScribe Nuclear Extract). The class given is biochemical. As for the experimental part:
Radiochemical assays with human RNAP I, II, and III were performed essentially as described [Sawadogo and Roeder, Cell 43:165-75, 1985]. Reaction mixtures contained (20 μl): 0-100 μM test compound, 8 U HeLaScribe Nuclear Extract (Promega, Inc.), 1 μg human placental DNA (Sigma-Aldrich), 400 μM ATP, 400 μM [α^32P]UTP (0.11 Bq/fmol), 400 μM CTP, 400 μM GTP, 50 mM Tris-HCl, pH 8.0, 7 mM HEPES-NaOH, 70 mM (NH4)2SO4, 50 mM KCl, 12 mM MgCl2, 5 mM DTT, 0.1 mM EDTA, 0.08 mM phenylmethylsulfonyl fluoride, and 16% glycerol. Reaction components other than DNA and NTPs were pre-incubated 10 min at 30° C., DNA was added and reaction mixtures were incubated 15 min at 30° C., NTPs were added and reaction mixtures were incubated 60 min at 30° C. Reaction mixtures were spotted on DE81 filter discs (Whatman, Inc.; pre-wetted with water) and incubated 1 min at room temperature. Filters were washed with 3×3 ml Na2HPO4, 2×3 ml water, and 3 ml ethanol, using a filter manifold (Hoefer, Inc.). Filters were placed in scintillation vials containing 10 ml Scintiverse BD Cocktail (Thermo Fisher, Inc.), and radioactivity was quantified by scintillation counting (LS6500; Beckman-Coulter, Inc.).
(§1) Half-maximal inhibitory concentrations (IC50s) were calculated by non-linear regression in SigmaPlot (SPSS, Inc.).

Data set [3] relates to Escherichia coli D21f2tolC. The data set can be described thus: Antibacterial activity, broth microdilution. The settings on record: for MIC50: Escherichia coli, D21F2TOLC, read-out: MIC50 Escherichia coli D21f2tolC. The class given is cell-based. An excerpt: (§2) Antibacterial activity was quantified using broth microdilution [Clinical and Laboratory Standards Institute (CLSI/NCCLS), Methods for Dilution Antimicrobial Susceptibility Tests for Bacteria That Grow Aerobically; Approved Standard, Eighth Edition. CLIS Document M07-A8 (CLIS, Wayne Pa.), 2009]. Assays with Enterobacter cloacae ATCC13047, Pseudomonas aeruginosa ATCC10145, and Escherichia coli D21f2to1C, employed a starting cell density of 2-5×10^5 cfu/ml, Mueller Hinton II cation adjusted broth (BD Biosciences, Inc.), and an air atmosphere. Assays with Haemophilus influenzae ATCC49247 and Neisseria gonorrhoeae ATCC19424 employed a starting cell density of 2-5×10^5 cfu/ml, Haemophilus Test Medium broth (Barry et al., 1993) and a 5% CO2/95% air atmosphere. MIC50 was defined as the minimal concentration resulting in ≧50% inhibition of bacterial growth.

Data set [4] relates to Haemophilus influenzae ATCC49247. Kind of data set: Antibacterial activity, broth microdilution. The class given is cell-based.
Source text: as §2

The subject of data set [5] is Enterobacter cloacae ATCC13047. Kind of data set: Antibacterial activity, broth microdilution. The data set is classed as cell-based. As to conditions: for MIC50: Enterobacter cloacae, ATCC13047, minimal concentration resulting in ≧50% inhibition of bacterial growth, read-out: MIC50 Enterobacter cloacae ATCC 13047.
Source text: as §2

The subject of data set [6] is Neisseria gonorrhoeae ATCC19424. The data set can be described thus: Antibacterial activity, broth microdilution. The data set is classed as cell-based.
Source text: as §2

Data set [7] deals with Pseudomonas aeruginosa ATCC10145. Kind of data set: Antibacterial activity, broth microdilution. The data set is classed as cell-based.
Source text: as §2

Data set [8] has as its target T1, Escherichia coli RNAP holoenzyme (Escherichia coli, UniProt P0A8T7+P0A8V2).
T1 construct: made in house
Kind of data set: Radiochemical RNAP assay, Escherichia coli RNAP. The class given is biochemical. The protocol:
(§3) Radiochemical RNAP assays with Escherichia coli RNAP and Staphylococcus aureus RNAP were performed as follows: Reaction mixtures contained (10 μl): 0-100 μM test compound, bacterial RNAP holoenzyme [75 nM Escherichia coli RNAP holoenzyme (prepared as in Mukhopadhyay et al., Meths. Enzymol. 371:144-159, 2003) or 75 nM Staphylococcus aureus RNAP core enzyme and 300 nM Staphylococcus aureus σ^A (prepared as in Srivastava et al., Curr. Opin. Microbiol. 14:532-543, 2011)], 20 nM DNA fragment N25-lacUV5-14 [positions −100 to −1 of the bacteriophage T5 N25 promoter followed by positions +1 to +29 of the lacUV5(+10A; +15C) promoter; prepared by PCR amplification of a synthetic nontemplate-strand oligodeoxyribonucleotide], 0.5 mM ApA, 100 μM □[α^32P]UTP (0.2 Bq/fmol), 100 μM ATP, and 100 μM GTP in TB (50 mM Tris-HCl, pH 7.9, 100 mM KCl, 10 mM MgCl2, 1 mM DTT, 100 μg/ml bovine serum albumin, and 5% glycerol). […] Products were applied to 7 M urea 15% polyacrylamide (19:1 acrylamide:bisacrylamide) slab gels (Bio-Rad), electrophoresed in TBE (90 mM Tris-borate, pH 8.0, and 2 mM EDTA), and analyzed by storage-phosphor scanning (Typhoon; GE Healthcare, Inc.).
as §1

The target in data set [9] is T2, Staphylococcus aureus RNAP (Staphylococcus aureus, UniProt P47768+Q2G0N5).
T2 construct: made in house
The data set can be described thus: Radiochemical RNAP assay, Staphylococcus aureus RNAP. The class given is biochemical. The protocol: as §3, §1

Data set [10] has as its target Escherichia coli RNAP σ70 holoenzyme (Escherichia coli, UniProt P0A8T7+P0A8V2). Kind of data set: Fluorescence-detected RNAP assay, Escherichia coli RNAP. The data set is classed as biochemical. The protocol:
Fluorescence-detected RNAP assays with Escherichia coli RNAP were performed by a modification of the procedure of Kuhlman et al., Anal. Biochem. 324:183-190, 2004]. Reaction mixtures contained (20 μl): 0-100 nM test compound, 75 nM Escherichia coli RNAP σ^70 holoenzyme, 20 nM 384 bp DNA fragment containing the bacteriophage T4 N25 promoter, 100 μM ATP, 100 μM GTP, 100 μM UTP, 100 μM CTP, 50 mM Tris-HCl, pH 8.0, 100 mM KCl, 10 mM MgCl2, 1 mM DTT, 10 μg/ml bovine serum albumin, and 5.5% glycerol. Reaction components other than DNA and NTPs were pre-incubated for 10 min at 37° C. Reactions were carried out by addition of DNA and incubation for 5 min at 37° C., followed by addition of NTPs and incubation for 60 min at 37° C. DNA was removed by addition of 1 μl 5 mM CaCl2 and 2 U DNasel (Ambion, Inc.), followed by incubation for 90 min at 37° C. RNA was quantified by addition of 100 μl RiboGreen RNA Quantitation Reagent (Invitrogen, Inc.; 1:500 dilution in Tris-HCl, pH 8.0, 1 mM EDTA), followed by incubation for 10 min at 25° C., followed by measurement of fluorescence intensity [excitation wavelength=485 nm and emission wavelength=535 nm; QuantaMaster QM1 spectrofluorometer (PTI, Inc.)].
as §1

The subject of data set [11] is Gram-positive and Gram-negative bacterial RNAP. Kind of data set: Inhibition of bacterial RNAP in vitro (statement). The class given is biochemical. As to conditions: disclosed herein.
Data set [12] relates to Gram-positive bacterial pathogens. As to conditions: reported previously (Trischman et al. 1994; Moore et al. 1999); cited from earlier work.
The mark [13] stands for this setting: read-out: IC50 human RNAP I/II/III.
[14] abbreviates: Gram-negative bacterial pathogen.

Values after ≈ are worked out from the molar mass of the structure shown. Like-named read-outs stand apart in the source and are kept apart here. Numbered stars: 1 amine (or outer) side, 2 acyl side, 3 side chain; on linkers, the order of the positions; unused ones are H or OH. Bridge positions count the residues as written; N and C are the ends. Square brackets hold non-standard residues; d marks the D form. Peptide text beside a SMILES is read from it. * marks the point of attachment. X2 = C[C@@H](Oc1ccc([C@H](N[*:1])C(=O)[*:2])cc1)[C@](O)(/C=C/C(=O)[*:3])CBr; X3 = C[C@@H](Oc1ccc([C@H](N[*:1])C(=O)[*:2])cc1)C(O)(/C=C/C(=O)[*:3])CCl; Pentanoyl(2R-Me,3R-OH,4-Me) = CC(C)[C@@H](O)[C@@H](C)C(=O)*; d(aIle) = CC[C@H](C)[C@@H](N)C(=O)O; d(aThr) = C[C@@H](O)[C@@H](N)C(=O)O; NMeF = CN[C@@H](Cc1ccccc1)C(=O)O A value given as a limit tells only on which side of the number the result lay.

Chain of Escherichia coli RNAP σ70 holoenzyme (P0A8T7 whole entry, the tested form may be a part): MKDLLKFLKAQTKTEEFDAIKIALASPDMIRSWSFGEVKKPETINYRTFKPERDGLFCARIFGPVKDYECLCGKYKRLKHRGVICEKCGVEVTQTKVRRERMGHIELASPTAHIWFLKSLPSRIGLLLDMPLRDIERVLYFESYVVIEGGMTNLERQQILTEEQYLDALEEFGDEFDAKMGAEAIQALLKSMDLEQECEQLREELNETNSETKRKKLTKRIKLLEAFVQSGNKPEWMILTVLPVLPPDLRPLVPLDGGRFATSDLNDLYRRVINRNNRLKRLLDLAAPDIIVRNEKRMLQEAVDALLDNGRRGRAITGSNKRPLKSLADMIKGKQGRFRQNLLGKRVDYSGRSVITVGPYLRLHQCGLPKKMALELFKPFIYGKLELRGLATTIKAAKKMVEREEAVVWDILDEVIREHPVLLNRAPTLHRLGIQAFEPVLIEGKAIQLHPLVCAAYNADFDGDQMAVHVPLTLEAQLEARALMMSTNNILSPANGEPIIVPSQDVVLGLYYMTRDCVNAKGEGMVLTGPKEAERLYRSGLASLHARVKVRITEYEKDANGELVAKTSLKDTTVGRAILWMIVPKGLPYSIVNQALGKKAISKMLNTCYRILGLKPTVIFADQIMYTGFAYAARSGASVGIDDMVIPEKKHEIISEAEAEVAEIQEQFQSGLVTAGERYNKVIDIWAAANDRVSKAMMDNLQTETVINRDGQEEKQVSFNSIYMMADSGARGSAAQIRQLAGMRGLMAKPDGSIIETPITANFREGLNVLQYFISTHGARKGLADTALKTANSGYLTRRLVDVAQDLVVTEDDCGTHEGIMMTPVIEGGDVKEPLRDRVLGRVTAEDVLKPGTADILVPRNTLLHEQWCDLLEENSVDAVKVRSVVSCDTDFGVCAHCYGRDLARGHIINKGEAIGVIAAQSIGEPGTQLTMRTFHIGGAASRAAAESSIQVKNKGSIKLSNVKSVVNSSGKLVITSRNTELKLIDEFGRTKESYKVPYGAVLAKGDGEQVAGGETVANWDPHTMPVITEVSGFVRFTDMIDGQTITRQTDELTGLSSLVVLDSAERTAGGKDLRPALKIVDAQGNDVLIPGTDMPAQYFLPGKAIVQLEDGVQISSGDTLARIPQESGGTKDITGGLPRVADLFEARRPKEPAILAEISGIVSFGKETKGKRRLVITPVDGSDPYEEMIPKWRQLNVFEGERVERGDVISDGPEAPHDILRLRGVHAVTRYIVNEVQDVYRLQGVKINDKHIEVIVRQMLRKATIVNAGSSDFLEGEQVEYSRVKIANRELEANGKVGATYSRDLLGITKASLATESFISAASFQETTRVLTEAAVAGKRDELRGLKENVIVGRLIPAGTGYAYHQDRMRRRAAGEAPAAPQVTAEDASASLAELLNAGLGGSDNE
Chain of Escherichia coli RNAP σ70 holoenzyme (P0A8V2 whole entry, the tested form may be a part): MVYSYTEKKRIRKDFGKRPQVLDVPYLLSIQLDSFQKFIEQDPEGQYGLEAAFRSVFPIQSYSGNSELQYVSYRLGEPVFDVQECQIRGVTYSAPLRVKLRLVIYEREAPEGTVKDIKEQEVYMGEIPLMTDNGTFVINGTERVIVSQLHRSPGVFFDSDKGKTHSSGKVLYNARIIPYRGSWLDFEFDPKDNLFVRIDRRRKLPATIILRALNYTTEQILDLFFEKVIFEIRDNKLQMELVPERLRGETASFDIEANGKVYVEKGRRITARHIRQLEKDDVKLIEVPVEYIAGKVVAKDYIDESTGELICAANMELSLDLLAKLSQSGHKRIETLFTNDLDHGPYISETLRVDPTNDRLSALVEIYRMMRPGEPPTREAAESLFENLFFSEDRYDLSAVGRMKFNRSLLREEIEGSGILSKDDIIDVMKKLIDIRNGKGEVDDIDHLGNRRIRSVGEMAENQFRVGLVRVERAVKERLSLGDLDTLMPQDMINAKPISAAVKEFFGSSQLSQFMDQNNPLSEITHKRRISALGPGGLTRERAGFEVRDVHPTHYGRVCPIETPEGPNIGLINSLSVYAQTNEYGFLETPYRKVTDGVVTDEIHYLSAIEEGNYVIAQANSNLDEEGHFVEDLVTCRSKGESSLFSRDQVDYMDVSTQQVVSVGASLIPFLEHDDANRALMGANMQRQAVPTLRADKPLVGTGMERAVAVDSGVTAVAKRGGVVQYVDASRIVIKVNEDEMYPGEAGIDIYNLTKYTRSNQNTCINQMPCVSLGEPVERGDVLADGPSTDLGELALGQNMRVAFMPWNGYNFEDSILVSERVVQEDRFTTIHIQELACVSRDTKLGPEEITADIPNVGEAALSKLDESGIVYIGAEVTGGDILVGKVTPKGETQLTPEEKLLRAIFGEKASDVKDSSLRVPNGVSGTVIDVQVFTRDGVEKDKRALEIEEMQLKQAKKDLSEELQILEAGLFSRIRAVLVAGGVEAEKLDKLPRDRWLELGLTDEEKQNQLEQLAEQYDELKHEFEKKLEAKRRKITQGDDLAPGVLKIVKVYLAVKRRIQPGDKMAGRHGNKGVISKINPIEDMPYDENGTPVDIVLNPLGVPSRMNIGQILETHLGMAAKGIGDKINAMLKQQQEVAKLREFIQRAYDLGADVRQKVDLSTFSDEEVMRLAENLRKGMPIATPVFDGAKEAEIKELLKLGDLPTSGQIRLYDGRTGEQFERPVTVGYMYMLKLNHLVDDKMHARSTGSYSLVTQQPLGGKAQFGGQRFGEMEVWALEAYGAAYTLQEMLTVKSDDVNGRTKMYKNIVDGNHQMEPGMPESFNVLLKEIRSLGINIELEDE
Chain of Escherichia coli RNAP σ70 holoenzyme (P0A7Z4 whole entry, further chain, the tested form may be a part): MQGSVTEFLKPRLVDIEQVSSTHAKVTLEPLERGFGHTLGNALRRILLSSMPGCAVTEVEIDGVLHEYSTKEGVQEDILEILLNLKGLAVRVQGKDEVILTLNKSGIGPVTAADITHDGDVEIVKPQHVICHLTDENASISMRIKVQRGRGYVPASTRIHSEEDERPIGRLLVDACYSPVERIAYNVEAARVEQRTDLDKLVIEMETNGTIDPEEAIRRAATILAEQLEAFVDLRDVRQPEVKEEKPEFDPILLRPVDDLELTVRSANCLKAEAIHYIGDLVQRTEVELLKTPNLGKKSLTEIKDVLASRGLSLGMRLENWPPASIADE
Chain of Escherichia coli RNAP σ70 holoenzyme (P0A800 whole entry, further chain, the tested form may be a part): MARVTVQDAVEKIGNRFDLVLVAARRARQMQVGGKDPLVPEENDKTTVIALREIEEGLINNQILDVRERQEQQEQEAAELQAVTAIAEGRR
Chain of Escherichia coli RNAP σ70 holoenzyme (P00579 whole entry, further chain, the tested form may be a part): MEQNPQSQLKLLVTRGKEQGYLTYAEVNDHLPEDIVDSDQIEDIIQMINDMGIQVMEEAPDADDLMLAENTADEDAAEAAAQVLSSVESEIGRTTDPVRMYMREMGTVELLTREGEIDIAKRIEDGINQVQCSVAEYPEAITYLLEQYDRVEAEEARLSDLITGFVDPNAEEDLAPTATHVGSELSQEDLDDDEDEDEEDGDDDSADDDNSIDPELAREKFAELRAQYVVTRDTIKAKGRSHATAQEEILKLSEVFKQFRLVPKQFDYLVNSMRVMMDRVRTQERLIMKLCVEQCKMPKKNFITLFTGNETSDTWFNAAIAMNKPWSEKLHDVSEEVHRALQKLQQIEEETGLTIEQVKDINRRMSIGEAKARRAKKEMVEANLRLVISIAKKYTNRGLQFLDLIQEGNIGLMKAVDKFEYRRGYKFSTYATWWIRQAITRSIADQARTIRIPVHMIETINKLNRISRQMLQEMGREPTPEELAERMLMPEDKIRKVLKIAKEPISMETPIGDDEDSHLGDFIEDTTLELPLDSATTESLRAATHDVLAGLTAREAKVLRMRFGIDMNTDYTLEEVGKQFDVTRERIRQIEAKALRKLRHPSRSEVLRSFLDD

In the case of `CC[C@H](C)[C@H]1NC(=O)[C@@H](NC(=O)[C@H](C)[C@H](O)C(C)C)[C@@H](C)OC(=O)[C@@H]2COC(=O)CNC(=O)/C=C/[C@](O)(CBr)[C@@H](C)Oc3ccc(cc3)[C@H](NC1=O)C(=O)N(C)[C@@H](Cc1ccccc1)C(=O)N[C@H]([C@@H](C)O)C(=O)N2` [Sal-Br (3), Sal-Br] ({Pentanoyl(2R-Me,3R-OH,4-Me)}-T[d(aIle)][X2][NMeF][d(aThr)]S; ester 1-C; linker 3-6 via G), in data set [1], the “MIC50 Vero E6 ATCC CRL1586” value is over 100 µg/mL. The “MIC Vero E6 cells” value in [1] (growth of mammalian cells in culture) is over 50 µg/mL. The IC50 in data set [2] (radiochemical assay, read-out: IC50 human RNAP I, II, and III) was over 100000 nM; in data set [2] (setting [13]) it was over 100000 nM; in [8], 780 ± 50 nM; in data set [9] it was 540 ± 40 nM. Further, the MIC50 came out at 0.049 µg/mL (≈ 0.0445 µM) in data set [3]; 6.25 µg/mL (≈ 5.68 µM) in data set [4] (Haemophilus influenzae, ATCC49247, minimal concentration resulting in ≧50% inhibition of bacterial growth); 1.56 µg/mL (≈ 1.42 µM) in data set [5]; 1.56 µg/mL (≈ 1.42 µM) in [6] (Neisseria gonorrhoeae, ATCC19424, minimal concentration resulting in ≧50% inhibition of bacterial growth); 50 µg/mL (≈ 45.4 µM) in data set [7] (Pseudomonas aeruginosa, ATCC10145, minimal concentration resulting in ≧50% inhibition of bacterial growth). For the same molecule, the “antibacterial activity” value in data set [3] (refers to Table 2 (E. coli D21f2tolC and Enterobacter cloacae)) is “essentially full”. Moreover, the “RNAP-inhibitory activity” value in data set [10] (refers to Table 1) is “essentially full”.

As for `CC[C@H](C)[C@H]1NC(=O)[C@@H](NC(=O)[C@H](C)[C@H](O)C(C)C)[C@@H](C)OC(=O)[C@@H]2COC(=O)CNC(=O)/C=C/C(O)(CCl)[C@@H](C)Oc3ccc(cc3)[C@H](NC1=O)C(=O)N(C)[C@@H](Cc1ccccc1)C(=O)N[C@H]([C@@H](C)O)C(=O)N2` (stereo partly drawn) [SalB (2), salinamide B] ({Pentanoyl(2R-Me,3R-OH,4-Me)}-T[d(aIle)][X3][NMeF][d(aThr)]S; ester 1-C; linker 3-6 via G), the “inhibition of growth of mammalian cells in culture” value in data set [1] was “do not detectably inhibit”. Further, the “MIC50 Vero E6 ATCC CRL1586” value in data set [1] was over 100 µg/mL. For the same molecule, the “inhibition of human RNAP I, II, and III” value in [2] is “do not detectably inhibit”. The IC50 in data set [2] (setting [13]) was over 100000 nM; in data set [10] (fluorescent-detected RNAP assays), 1000 nM. The MIC50 stood at 0.098 µg/mL (≈ 0.0927 µM) in [3] and 6.25 µg/mL (≈ 5.92 µM) in data set [5]. Further, in data set [4] (setting [14]), the “antibacterial activity against Haemophilus influenzae” value is given as “exhibit antibacterial activity”. Moreover, the “antibacterial activity against Enterobacter cloacae” value in data set [5] (setting [14]) is reported as “exhibit antibacterial activity”. For the same molecule, in data set [6] (setting [14]), the “antibacterial activity against Neisseria gonorrhoeae” value is listed as “exhibit antibacterial activity”. In addition, in [7] (setting [14]), the “antibacterial activity against Pseudomonas aeruginosa” value is on record as “exhibit antibacterial activity”. In addition, the “inhibition of Gram-positive and Gram-negative bacterial RNAP in vitro” value in data set [11] was “inhibits”. In addition, in [12], the “antibacterial activity against Gram-positive bacterial pathogens” value was “exhibit antibacterial activity”.

These data come from patent publication US9809626B2, “Antibacterial agents: salinamide derivatives” (priority 2012, dated 2017).
